# Laboratory results taken from patent US4412994A, “Mannich-base hydroxamic acid prodrugs, compositions and use” (INTERx Research Corporation, priority 1982, dated 1983).
# Tested on: mouse ear
# Test: mouse ear assay (croton oil-induced ear inflammation, anti-inflammatory activity)
# Type: in vivo, male ddY strain mouse
# Details: topical, 0.05 ml in acetone containing 2% croton oil on right ear; 3 hours; linear regression of data at 2×10^-2, 4×10^-2 and 8×10^-2 M; groups of 15 mice
# Procedure: G. Van Arman, Clin. Pharm. […] Details of the mouse ear assay are as follows:
# The test animal was the male ddY strain mouse (20-25 grams each). Solutions of the test compound in acetone containing 2% croton oil (i.e. a solution containing 98 parts of acetone to 2 parts of croton oil) were prepared for varying concentrations of the test compound. Then, the test animals were anesthetized and 0.05 ml of the selected test solution was applied in 0.025 ml aliquots, one each to the anterior and posterior surface of the right ear of each mouse. Three hours after application, the mice were sacrificed via ether inhalation and both ears were removed from each mouse. Then, one circular section, 8 mm in diameter, was taken from each ear using a leather punch. The increase in weight caused by the irritant was determined by subtracting the weight of the untreated left ear section from that of the right ear section. Drug effects expressed as percent inhibition were determined at each selected concentration (molarity) of each test compound according to the following equation: [formula]
# Groups of 15 mice were treated at each dosage level of each test compound. The control group consisted of 30 mice. In the control group, the right ear of each mouse was treated with the croton oil/acetone solution described above but not containing test compound, while the left ear of each control mouse was untreated.
# Indomethacin, indomethacin hydroxamic acid and the compounds of Examples 3, 4 and 5 were tested according to the mouse ear assay described above.
row,Compound,ED50 [M]
1,"COc1ccc2c(c1)c(CC(=O)O)c(C)n2C(=O)c1ccc(Cl)cc1 [Indomethacin, 1-(4'-Chlorobenzoyl)-5-methoxy-2-methyl-3-indolylacetic Acid, reference compound]",0.061
2,"CCN(CC)CN(O)C(=O)Cc1c(C)n(C(=O)c2ccc(Cl)cc2)c2ccc(OC)cc12 [α-[1-(4'-Chlorobenzoyl)-5-methoxy-2-methylindol-3-yl]-N-(N', N'-diethylaminomethyl)acetohydroxamic Acid]",0.041
3,COc1ccc2c(c1)c(CC(=O)N(O)CN1CCOCC1)c(C)n2C(=O)c1ccc(Cl)cc1 [α-[1-(4'-Chlorobenzoyl)-5-methoxy-2-methylindol-3-yl]-N-(morpholinomethyl)acetohydroxamic Acid],0.054
4,COc1ccc2c(c1)c(CC(=O)N(O)CN1CCN(C)CC1)c(C)n2C(=O)c1ccc(Cl)cc1 [α-[1-(4'-Chlorobenzoyl)-5-methoxy-2-methylindol-3-yl]-N-[(4-methylpiperazin-1-yl)methyl]acetohydroxamic Acid],0.027
5,"COc1ccc2c(c1)c(CC(=O)NO)c(C)n2C(=O)c1ccc(Cl)cc1 [Indomethacin hydroxamic acid, α-[1-(4'-Chlorobenzoyl)-5-methoxy-2-methylindol-3-yl]acetohydroxamicAcid]",0.096
